Columns and labels:
[1] = system: HL-60 cells; assay: Apoptotic sub-G1 cells / apoptosis; format: cell-based, human
Procedure: Cell kinetic and DNA fragmentation studies. The cell cycle kinetics was determined by staining cells with acridine orange for cellular DNA and RNA content followed by flow cytometeric analysis as described. Samples were measured in a FACScan flow cytometer (Becton Dickinson, San Jose, Calif.) using the 488-nm line of a […] argon laser and filter settings for green (530 nm) (DNA) and red (585 nm) (RNA) fluorescence. Ten thousand events were stored in list mode for analysis. The percentage of cells in the “sub G1 peak” defined the proportion of apoptotic cells in the tested populations. […] Cell-cycle kinetics was analyzed using ModFit software (Verity Software House, Inc., Topsham, Me.).
Comparison of CDDO-compounds with other PPARγ ligands. […] In contrast, CDDO induced monocytic differentiation at 0.5 to 1.0 μM and apoptosis at 1 μM in HL-60 cells. […] These experiments will define the ability of CDDO to induce differentiation and apoptosis in comparison to other PPARγ ligands. Similar experiments are contemplated with CDDO-Me.

[2] = system: human leukemic KBM-3 cells; assay: Engraftment of leukemic cells in NOD/Scid mice, FISH; format: in vivo; conditions: 6 mg/kg/day IP for 10 days
Procedure: The effect of CDDO on engraftment of leukemic cells was further tested in NOD/Scid mice transplanted with 1×10^6 human leukemic KBM-3 cells. Eleven mice were treated with CDDO at 6 mg/kg/day IP (divided in 3 injections per day) for 10 days; a control set of 9 mice received vehicle alone. The engraftment of human leukemic cells was determined by FISH based on the known karyotype of the cells (trisomy 8) at 5 weeks following transplantation. While 10.6±2.7% cells were leukemic in the bone marrow of the control group (range 0.12-21%), only 3±2.4% leukemic cells were found in CDDO-treated mice (range 0.04-12.5%, p=0.016). 5/11 CDDO-treated animals but only ⅛ controls had <1% leukemic cells by FISH analysis.

[3] = system: Bcl-2 in CD34+ cells of primary AML; assay: Bcl-2 expression level in CD34+ cells of primary AML samples; format: cell-based, human
[4] = molecular target: PPARα receptor (Homo sapiens, UniProt Q07869); assay: Transactivation of PPARα; format: cell-based
[5] = system: AML CD34+ cells; assay: Fas expression in primary AML CD34+ cells; format: cell-based, human
Procedure: Immunophenotyping. The PE-conjugated anti-CD11b, FITC-conjugated anti-CD14 monoclonal antibody (mAb) (Becton Dickinson) and PE-conjugated anti-CD95 mAb (PharMingen) were used at a 1/10 dilution. The percentage of positive cells was calculated by subtracting the percentage of cells with a fluorescence intensity greater than the set marker using the isotype control (background) from the percentage of cells with a fluorescence intensity greater than the same marker using the specific antibody.
Mechanisms of CDDO-induced apoptosis in leukemia cell lines and in primary AML samples were also determined. The involvement of the death receptor/Fas pathway was studied in NB4 cells. Treatment with 0.5 μM CDDO induced cell surface Fas/CD95 expression at 48 hours (MFI 34.8 vs 24.8 in DMSO-treated cells and 26 in untreated control). At this concentration, 22.3% of cells were annexin V positive compared with 11.4% in DMSO-controls. At 1 μM, 56.3% of cells were apoptotic. Similarly, 1 μM CDDO induced Fas expression in 7/12 AML CD34+ cells (MFI, 22.3±3.5 in DMSO-controls, 40±4.3 in CDDO-treated CD34+ cells, p<0.01).

[6] = system: Bcl-2 phosphorylation; assay: Bcl-2 phosphorylation, 32P metabolic labeling; format: cell-based; conditions: 0.1 μM
Procedure: Metabolic labeling, immunoprecipitation, and immunoblot analysis. Cells were labeled with [^32P]orthophosphoric acid and then treated with 0.1 μM CDDO-Me or CDDO, after which Bcl-2 was analyzed by immunoprecipitation, as previously described Samples were electrophoresed in a 12% acrylamide/0.1% SDS gel, transferred to nitrocellulose, and exposed to Hyperfilm (Amersham Pharmacia Biotech, UK) at −80° C. The same blot was used for western blot analysis with anti-Bcl-2 antisera.
(§1) The effect of CDDO-Me on Bcl-2 phosphorylation was further investigated by performing metabolic labeling studies with ^32P-orthophosphoric acid. […] To further investigate mechanisms of inhibition of Bcl-2 phosphorylation that could may a role in CDDO-Me-induced cell death, the inventors selected U937 cells that were stably transfected with a serine 70→alanine, Bcl-2 mutant (S70A).

[7] = system: U937/S70A Bcl-2 cells; assay: Viability of Bcl-2 mutant transfectants; format: cell-based, human; conditions: 0.1 μM
Source text: (§2) Cell lines. HL-60, KG-1, U937, and Jurkat cell lines were obtained from the American Type Culture Collection (Rockville, Md.). NB4 cells were kindly provided by Dr. M. Lanotte. HL-60-doxorubicin-resistant cells (HL-60-DOX) were also used. U937/Bcl-2 and its appropriate vector controls (U937/pCEP) were provided by Dr. S. Grant. U937 cells were transfected with WT, S70A, or S70E cDNA containing cytomegalovirus plasmids by electroporation (200 V, 975 μF capacitance) and selected and maintained in the medium plus 500 μg/mL G418 (Gibco BRL, Gaithersburg, Md.)
as §1

[8] = system: U937 S70E Bcl-2 cells; assay: Viability of Bcl-2 mutant transfectants; format: cell-based, human; conditions: 0.1 μM
Source text: as §2, §1

[9] = system: U937/wt; assay: Viability of Bcl-2 transfectants; format: cell-based, human; conditions: 0.1 μM
Source text: as §2, §1

[10] = system: U937 cells; assay: Active caspase detection with Phi-Phi-Lux; format: cell-based, human; conditions: 1 μM, 6 hours
Procedure: Detection of active caspases. The cell-permeable fluorogenic substrate Phi-Phi-Lux-G1D2 was administered to monitor caspase activity according to the manufacturer's recommendations (OncoImmunin, Inc, Kensington, Md.). Briefly, 10^6 cells were resuspended in 5 μL of substrate solution and incubated for 1 hour at 37° C. in the dark. After incubation, cells were washed, and the fluorescence emission was determined using the FL-1 channel of a Becton Dickinson FACScan flow cytometer.
CDDO-Me. […] Effects of CDDO-Me on the cleavage of caspase-3 were analyzed utilizing the fluorogenic substrate of caspase-3 Phi-Phi-Lux.

[11] = Murine model of angiogenesis, invasion promoted by ALL BM plasma; format: in vivo; conditions: 0.5 μM, n=8
Procedure: CDDO-Me. The formation of tube-like endothelial structures that are associated with angiogenesis was analyzed using a Matrigel system (Kubota et al., 1988). Capillary-like structure formation of bone marrow endothelium was inhibited by CDDO-Me. […] Furthermore, in a murine model of angiogenesis, angiogenic invasion promoted by ALL BM plasma was abrogated by CDDO-Me at 0.5 μM (n=8). Thus, CDDO-Me also has anti-angiogenic effects.

Sequence of PPARα receptor (Q07869 whole entry): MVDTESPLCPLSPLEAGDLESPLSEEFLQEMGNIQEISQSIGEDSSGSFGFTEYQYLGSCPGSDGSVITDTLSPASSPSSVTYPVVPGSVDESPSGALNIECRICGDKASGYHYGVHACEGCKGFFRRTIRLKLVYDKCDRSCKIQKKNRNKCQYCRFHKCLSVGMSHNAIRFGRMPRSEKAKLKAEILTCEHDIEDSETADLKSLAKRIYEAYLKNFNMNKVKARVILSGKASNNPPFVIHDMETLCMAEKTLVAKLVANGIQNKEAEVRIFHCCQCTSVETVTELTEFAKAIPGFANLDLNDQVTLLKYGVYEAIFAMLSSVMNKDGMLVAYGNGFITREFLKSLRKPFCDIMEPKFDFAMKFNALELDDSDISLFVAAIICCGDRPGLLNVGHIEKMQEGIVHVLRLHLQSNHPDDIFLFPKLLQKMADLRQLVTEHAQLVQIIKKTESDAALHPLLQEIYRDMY

SMILES	apoptotic sub-G1 cells ([1]; 1 μM, 48 hrs) [%]	concentration at which apoptosis was induced ([1]; HL-60 cells) [µM]	animals with <1% leukemic cells by FISH [2]	leukemic cells in the bone marrow, range [2]	leukemic cells in the bone marrow (FISH) ([2]; 5 weeks after transplantation (control 10.6±2.7%)) [%]	primary AML samples with significantly decreased Bcl-2 expression level in CD34+ cells [3]	transactivation of PPARα receptor [4]	AML samples with induced Fas expression in CD34+ cells ([5]; 1 μM)	Fas expression, MFI ([5]; 1 μM (22.3±3.5 in DMSO-controls))	Bcl-2 phosphorylation [6]	decrease in viability [7] [%]	viable cells [8] [%]	viable cells [9] [%]	Phi-Phi-Lux positive/PI negative cells [10] [%]	angiogenic invasion promoted by ALL BM plasma [11]
CC1(C)CCC2(C(=O)O)CCC3(C)C(C(=O)C=C4C5(C)C=C(C#N)C(=O)C(C)(C)C5CCC43C)C2C1 (stereo not drawn) [CDDO, 2-cyano-3,12-dioxoolen-1,9-dien-28-oic acid]	34.8	1	5/11	0.04-12.5%	3±2.4	9 of 18	did not transactivate	7/12	40±4.3						
COC(=O)[C@]12CCC(C)(C)C[C@H]1[C@H]1C(=O)C=C3[C@@]4(C)C=C(C#N)C(=O)C(C)(C)[C@@H]4CC[C@@]3(C)[C@]1(C)CC2 [CDDO-Me]										virtually abrogated	60	75	30	67	abrogated

Source: US7795305B2, “CDDO-compounds and combination therapies thereof” (Board of Regents, The University of Texas System, priority 2000, dated 2010)
